Laboratory results as given in US4605614A, “Method for measuring plasmin” (Nitto Boseki Co., Ltd., priority 1981, dated 1986).
Where a SMILES comes first, the peptide text is derived from it. [ ]: non-standard residue; d: D form. The star is where a group is joined. pNA = O=[N+]([O-])c1ccc(N*)cc1; Tos = Cc1ccc(S(=O)(=O)*)cc1

Key:
[1] = target: plasmin (pig) (Sus scrofa, UniProt P06867); experiment: Km, Vmax and Vmax/Km of substrates for plasmin (pig); assay type: biochemical, Porcine (pig); conditions: for Vmax (× 10^-7): TABLE 2, CHA substrates, plasmin (pig), 2,6-xylenol 615 nm; for Vmax (× 10^7): 405 nm
Text: The substrates produced by the above examples were used in the measurement of plasmin as follows: The principle of this measurement comprises quantitatively analyzing the decomposition product p-nitroaniline or 3-carboxy-4-hydroxyaniline produced by the enzymatic hydrolysis, by measuring the absorbance (O.D.) directly at 405 nm in the case of p-nitroaniline and, in the case of the 3-carboxy-4-hydroxyaniline at 615 nm after condensing it with 2,6-xylenol in the presence of an oxidant to develop a color.
For the measurements of these constants, the following method is adopted:
The enzyme and the substrate are mixed in a buffer solution and subjected to the hydrolysis for 30 seconds. The concentration of the substrate [S] is changed and the enzyme concentration is maintained constant. By measuring the absorbance (O.D.), the initial velocity of the hydrolysis can be determined. Where 1/V is plotted as a function of 1/[S], there is obtained a Lineweaver and Burk's linea from which graph the Vmax and Km can be determined.

[2] = target: Thrombin (TH) (Bos taurus, UniProt P00735); assay type: biochemical, Cow; conditions: pH 8.4, 37° C., 10 minutes, 1.0 NIH/ml; for Selectivity TH, absorbance (O.D.) at 645 nm: TABLE 4, CHA substrates, So = 0.54; for Selectivity TH, absorbance (O.D.) at 405 nm: TABLE 3, PNA substrates, So = 0.54 mmole/l
Experimental: (§1) The specificities of the novelly synthesized substrates were tested by reacting them with various enzymes respectively.
(§2) (1) Substrate solution concentration: 35 mmole/liter H2 O
(§3) (2) Buffer: Tris-hydrochloric acid buffer 50 mmole/l, NaCl 150 mmole/l (0.875%) was employed, and the pH for reaction was as follows depending on the enzyme.
(§4) 2,6-Xylenol 7.0 mmole+NaIO4 1.5 mmole/0.2N KOH
(§5) 0.5 ml of the buffer solution and 0.05 ml of the enzyme reagent were taken into a silicon-treated hard glass test tube or a plastic test tube, and preheated in a constant temperature bath at 37° C. for 5 minutes. Thereafter, 0.1 ml of the substrate solution was added to effect the enzymatic reaction at 37° C. for 10 minutes. Exactly after 10 minutes, 2.5 ml of the reaction terminating solution or the terminating and color developing reagent solution was added to terminate the enzymatic reaction, and after allowing to stand at 25° C. for 10 minutes, the absorbance at 405 nm or 645 nm was measured, in which [drawing 49]

[3] = target: Plasmin (PL) (Sus scrofa, UniProt P06867); assay type: biochemical, Pig; conditions: pH 7.4, 37° C., 10 minutes, 0.32 CU/ml; for Selectivity PL, absorbance (O.D.) at 645 nm: TABLE 4, CHA substrates, So = 0.54; for Selectivity PL, absorbance (O.D.) at 405 nm: TABLE 3, PNA substrates, So = 0.54 mmole/l
[4] = target: Kallikrein (KL) (Sus scrofa, UniProt P00752); assay type: biochemical, Pig; conditions: pH 7.9, 37° C., 10 minutes, 1.0 BAEE-U/ml; for Selectivity KL, absorbance (O.D.) at 645 nm: TABLE 4, CHA substrates, So = 0.54; for Selectivity KL, absorbance (O.D.) at 405 nm: TABLE 3, PNA substrates, So = 0.54 mmole/l
Experimental: as §1, §2, §3, §4, §5

[5] = target: Factor-Xa (FXa) (Bos taurus, UniProt P00743); assay type: biochemical, Cow; conditions: pH 8.4, 37° C., 10 minutes, 0.4 U/ml; for Selectivity FXa, absorbance (O.D.) at 645 nm: TABLE 4, CHA substrates, So = 0.54; for Selectivity FXa, absorbance (O.D.) at 405 nm: TABLE 3, PNA substrates, So = 0.54 mmole/l
Experimental: as §1, §2, §3, §4, §5

[6] = target: Urokinase (UK) (Homo sapiens, UniProt P00749); assay type: biochemical; conditions: pH 8.2, 37° C., 10 minutes, 1000 IU/ml; for Selectivity UK, absorbance (O.D.) at 645 nm: TABLE 4, CHA substrates, So = 0.54; for Selectivity UK, absorbance (O.D.) at 405 nm: TABLE 3, PNA substrates, So = 0.54 mmole/l
Experimental: as §1, §2, §3, §4, §5

[7] = TABLE 2, V/Km of each sample divided by that of S2251 (so in the source)
[8] = TABLE 1, PNA substrates, plasmin (pig)
[9] = TABLE 1, V/Km of each sample divided by that of S2251

Chain of Factor-Xa (FXa) (P00743 41-180): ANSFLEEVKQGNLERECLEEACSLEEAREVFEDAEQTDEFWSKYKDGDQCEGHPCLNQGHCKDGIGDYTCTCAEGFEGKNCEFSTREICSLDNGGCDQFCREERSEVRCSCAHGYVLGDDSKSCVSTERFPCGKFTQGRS
Chain of Factor-Xa (FXa) (P00743 234-492): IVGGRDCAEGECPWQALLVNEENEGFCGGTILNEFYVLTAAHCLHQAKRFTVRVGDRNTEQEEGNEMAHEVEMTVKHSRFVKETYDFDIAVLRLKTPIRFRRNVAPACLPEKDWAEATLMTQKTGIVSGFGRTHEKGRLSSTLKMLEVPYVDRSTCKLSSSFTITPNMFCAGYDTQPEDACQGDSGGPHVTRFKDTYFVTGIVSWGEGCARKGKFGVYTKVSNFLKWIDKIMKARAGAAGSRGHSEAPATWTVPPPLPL
Chain of Kallikrein (KL) (P00752 8-246): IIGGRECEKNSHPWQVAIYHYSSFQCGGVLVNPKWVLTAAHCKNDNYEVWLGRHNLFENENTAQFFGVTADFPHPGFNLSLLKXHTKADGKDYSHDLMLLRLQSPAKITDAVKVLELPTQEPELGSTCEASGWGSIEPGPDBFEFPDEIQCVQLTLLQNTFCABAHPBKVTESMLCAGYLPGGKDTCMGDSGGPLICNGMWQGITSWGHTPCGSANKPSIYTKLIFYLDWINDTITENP
Chain of plasmin (pig) (P06867 97-809): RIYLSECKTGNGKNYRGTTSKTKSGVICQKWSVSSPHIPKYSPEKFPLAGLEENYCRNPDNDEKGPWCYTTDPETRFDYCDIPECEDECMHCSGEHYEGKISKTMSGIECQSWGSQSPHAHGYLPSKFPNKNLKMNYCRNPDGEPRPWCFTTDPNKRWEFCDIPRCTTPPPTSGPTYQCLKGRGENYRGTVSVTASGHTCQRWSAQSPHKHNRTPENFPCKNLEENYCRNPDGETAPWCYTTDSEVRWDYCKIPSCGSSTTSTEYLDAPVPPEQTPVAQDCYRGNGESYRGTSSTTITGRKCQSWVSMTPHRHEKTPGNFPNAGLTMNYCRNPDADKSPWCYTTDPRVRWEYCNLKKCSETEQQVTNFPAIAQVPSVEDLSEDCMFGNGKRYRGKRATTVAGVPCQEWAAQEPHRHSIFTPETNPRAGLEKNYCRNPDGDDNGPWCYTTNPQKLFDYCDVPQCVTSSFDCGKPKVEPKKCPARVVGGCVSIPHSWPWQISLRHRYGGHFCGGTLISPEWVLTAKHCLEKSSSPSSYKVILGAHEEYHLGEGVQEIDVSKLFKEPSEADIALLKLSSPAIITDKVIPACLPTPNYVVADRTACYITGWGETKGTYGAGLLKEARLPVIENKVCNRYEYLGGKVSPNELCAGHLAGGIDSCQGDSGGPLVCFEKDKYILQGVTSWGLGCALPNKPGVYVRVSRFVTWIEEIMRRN
Chain of Plasmin (PL) (P06867 97-809): as above
Chain of Thrombin (TH) (P00735 44-625): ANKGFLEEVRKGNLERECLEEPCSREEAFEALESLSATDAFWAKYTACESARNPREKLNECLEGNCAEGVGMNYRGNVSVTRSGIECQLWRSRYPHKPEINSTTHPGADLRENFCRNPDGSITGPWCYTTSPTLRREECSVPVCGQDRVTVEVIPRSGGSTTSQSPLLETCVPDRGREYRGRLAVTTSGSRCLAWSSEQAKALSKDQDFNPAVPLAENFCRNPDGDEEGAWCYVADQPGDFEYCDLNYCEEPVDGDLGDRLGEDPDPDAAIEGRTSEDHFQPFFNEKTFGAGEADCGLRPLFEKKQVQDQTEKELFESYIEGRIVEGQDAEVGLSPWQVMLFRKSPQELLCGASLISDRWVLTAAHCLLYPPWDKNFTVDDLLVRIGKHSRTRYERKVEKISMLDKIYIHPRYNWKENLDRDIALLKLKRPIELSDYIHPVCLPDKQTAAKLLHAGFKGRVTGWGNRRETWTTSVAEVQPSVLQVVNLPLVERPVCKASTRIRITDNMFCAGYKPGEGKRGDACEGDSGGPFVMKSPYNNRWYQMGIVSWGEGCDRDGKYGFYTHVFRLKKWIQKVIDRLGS

SMILES	Vmax (× 10^-7) [1]	Relative ratio [1, 7]	Selectivity TH, absorbance (O.D.) at 645 nm [2]	Selectivity PL, absorbance (O.D.) at 645 nm [3]	Selectivity KL, absorbance (O.D.) at 645 nm [4]	Selectivity FXa, absorbance (O.D.) at 645 nm [5]	Selectivity UK, absorbance (O.D.) at 645 nm [6]	Vmax (× 10^7) [1, 8]	Relative ratio [1, 9]	Selectivity TH, absorbance (O.D.) at 405 nm [2]	Selectivity PL, absorbance (O.D.) at 405 nm [3]	Selectivity KL, absorbance (O.D.) at 405 nm [4]	Selectivity FXa, absorbance (O.D.) at 405 nm [5]	Selectivity UK, absorbance (O.D.) at 405 nm [6]	Vmax (× 10^-6) [mole/min/Cu] ([1]; Porcine Plasmin, comparison table in description)	V/Km (× 10^-3) [1, 8]
CCCC(=O)NCCCC[C@@H](N)C(=O)N[C@@H](Cc1ccccc1)C(=O)N[C@@H](CCCCN)C(=O)Nc1ccc(O)c(C(=O)O)c1 [NPC-19]	8.266 × 10^-7	31.117	0.001 O.D.	0.118 O.D.	0.004 O.D.	0.002 O.D.	0.001 O.D.	–	–	–	–	–	–	–	–	–
NCCCC[C@H](NC(=O)[C@H](Cc1ccccc1)NC(=O)[C@H](N)CCCCNC(=O)OCc1ccccc1)C(=O)Nc1ccc(O)c(C(=O)O)c1 [NPC-20]	40.725 × 10^-7	74.040	0 O.D.	0.467 O.D.	0.019 O.D.	0.006 O.D.	0.004 O.D.	–	–	–	–	–	–	–	–	–
CC(C)OC(=O)C[C@@H](N)C(=O)N[C@@H](Cc1ccccc1)C(=O)N[C@@H](CCCCN)C(=O)Nc1ccc(O)c(C(=O)O)c1 [NPC-21]	6.802 × 10^-7	17.414	0 O.D.	0.093 O.D.	0.010 O.D.	0.003 O.D.	0.004 O.D.	–	–	–	–	–	–	–	–	–
NCCCC[C@H](NC(=O)[C@H](Cc1ccccc1)NC(=O)[C@H](N)CC(=O)OC1CCCCC1)C(=O)Nc1ccc(O)c(C(=O)O)c1 [NPC-22]	17.991 × 10^-7	42.715	0 O.D.	0.213 O.D.	0.023 O.D.	0.015 O.D.	0.026 O.D.	–	–	–	–	–	–	–	–	–
NCCCC[C@H](NC(=O)[C@H](Cc1ccccc1)NC(=O)[C@H](N)CCC(=O)NCCc1ccccc1)C(=O)Nc1ccc(O)c(C(=O)O)c1 [NPC-23]	18.963 × 10^-7	43.045	0 O.D.	0.223 O.D.	0.009 O.D.	0.005 O.D.	0.004 O.D.	–	–	–	–	–	–	–	–	–
Cc1ccc(CCNC(=O)CC[C@@H](N)C(=O)N[C@@H](Cc2ccccc2)C(=O)N[C@@H](CCCCN)C(=O)Nc2ccc(O)c(C(=O)O)c2)cc1 [NPC-24]	21.637 × 10^-7	46.748	0 O.D.	0.279 O.D.	0.009 O.D.	0.005 O.D.	0.004 O.D.	–	–	–	–	–	–	–	–	–
CS(=O)(=O)NCCCC[C@@H](N)C(=O)N[C@@H](Cc1ccccc1)C(=O)N[C@@H](CCCCN)C(=O)Nc1ccc(O)c(C(=O)O)c1 [NPC-25]	15.803 × 10^-7	43.613	0 O.D.	0.185 O.D.	0.006 O.D.	0 O.D.	0 O.D.	–	–	–	–	–	–	–	–	–
Cc1ccc(S(=O)(=O)NCCCC[C@@H](N)C(=O)N[C@@H](CC(C)C)C(=O)N[C@@H](CCCCN)C(=O)Nc2ccc([N+](=O)[O-])cc2)cc1 [NPN-1, HD-Lys(Tos)LeuLysPNA.2HBr] (H-[dK](Tos)-Leu-Lys-pNA)	–	–	–	–	–	–	–	63.600 × 10^7	2.937	0 O.D.	0.457 O.D.	0.006 O.D.	0.003 O.D.	0.001 O.D.	–	–
Cc1ccc(S(=O)(=O)NCCCC[C@@H](N)C(=O)N[C@@H](Cc2ccccc2)C(=O)N[C@@H](CCCCN)C(=O)Nc2ccc([N+](=O)[O-])cc2)cc1 [NPN-2, H-D-Lys(ToS)-Phe-Lys PNA.2HBr] (H-[dK](Tos)-Phe-Lys-pNA)	–	–	–	–	–	–	–	47.968 × 10^7	26.517	0 O.D.	0.383 O.D.	0.004 O.D.	0.003 O.D.	0.001 O.D.	4.8 × 10^-6 mole/min/Cu	303.595 × 10^-3
NCCCC[C@H](NC(=O)[C@H](Cc1ccccc1)NC(=O)[C@H](N)CCC(=O)OC1CCCCC1)C(=O)Nc1ccc([N+](=O)[O-])cc1 [NPN-3, HD-Glu(CHN)PheLysPNA.2HBr] (HELM PEPTIDE1{[dE].F.K.[O=[N+]([O-])c1ccc(N[*:1])cc1]}|CHEM1{[C1CCC(O[*:1])CC1]}$PEPTIDE1,CHEM1,1:R3-1:R1$$$V2.0)	–	–	–	–	–	–	–	65.287 × 10^7	17.726	0 O.D.	0.466 O.D.	0.009 O.D.	0.003 O.D.	0.001 O.D.	–	–
NCCCC[C@H](NC(=O)[C@H](Cc1ccccc1)NC(=O)[C@H](N)CCC(=O)NCCc1ccccc1)C(=O)Nc1ccc([N+](=O)[O-])cc1 [NPN-4] (HELM PEPTIDE1{[dE].F.K.[O=[N+]([O-])c1ccc(N[*:1])cc1]}|CHEM1{[c1ccc(CCN[*:1])cc1]}$PEPTIDE1,CHEM1,1:R3-1:R1$$$V2.0)	–	–	–	–	–	–	–	23.895 × 10^7	7.481	0.001 O.D.	0.330 O.D.	0.010 O.D.	0.006 O.D.	0.002 O.D.	–	–
NCCCC[C@H](NC(=O)[C@H](Cc1ccccc1)NC(=O)[C@H](N)CCC(=O)NCCCc1ccccc1)C(=O)Nc1ccc([N+](=O)[O-])cc1 [NPN-5]	–	–	–	–	–	–	–	24.892 × 10^7	5.534	0 O.D.	0.525 O.D.	0.014 O.D.	0.005 O.D.	0.001 O.D.	–	–
NCCCC[C@H](NC(=O)[C@H](Cc1ccccc1)NC(=O)[C@H](N)CCC(=O)NCCCCc1ccccc1)C(=O)Nc1ccc([N+](=O)[O-])cc1 [NPN-6]	–	–	–	–	–	–	–	28.209 × 10^7	5.427	0 O.D.	0.646 O.D.	0.018 O.D.	0.003 O.D.	0.012 O.D.	–	–
Cc1ccc(CCNC(=O)CC[C@@H](N)C(=O)N[C@@H](Cc2ccccc2)C(=O)N[C@@H](CCCCN)C(=O)Nc2ccc([N+](=O)[O-])cc2)cc1 [NPN-7]	–	–	–	–	–	–	–	20.908 × 10^7	4.638	0.001 O.D.	0.427 O.D.	0.011 O.D.	0.008 O.D.	0.002 O.D.	–	–
